{"source": "patent US9376442B2", "about": "“Methylpyrrolopyrimidinecarboxamides” (Takeda GmbH, priority 2009, dated 2016)", "data": [{"target": "T1, PDE5A1 (Homo sapiens, UniProt O76074)", "T1 construct": "from tissue; host or cells: human platelets from fresh donor blood (10,000 x g supernatant of sonicated lysate)", "assay": "Inhibition of type 5 phosphodiesterase (PDE5) activity, modified SPA test with human platelet lysate", "type": "biochemical", "details": "0.5 μM cGMP, read-out: PDE5A1 inhibitory values [measured as −log IC50 (mol/l)] (converted)", "procedure,_shortened": "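Enzyme source is lysate from human platelets (10,000 g supernatant). Compound preincubated 5 min at 37° C in Tris pH 7.4 containing 1 μM motapizone and 10 nM of a PDE2 inhibitor. Reaction started with 0.5 μM cGMP ([3H] tracer) and run 15 min; SPA read-out, IC50 by non-linear regression.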", "units": {"IC50": "nM"}, "values": [{"smiles": "COc1ccc(OCC2CC2)c(-c2ncnc3c(C(=O)N[C@@H]4CCN(C(=O)[C@H](C)O)C4)c(C)[nH]c23)c1", "note": "[Example F48, 4-[2-(cyclopropylmethoxy)-5-methoxyphenyl]-N-{(3R)-1-[(2S)-2-hydroxypropanoyl]pyrrolidin-3-yl}-6-methyl-5H-pyrrolo[3,2-d]pyrimidine-7-carboxamide]", "IC50": "< 1"}, {"smiles": "CCOc1ccc(C(F)(F)F)cc1-c1ncnc2c(C(=O)NC3CCN(C(=O)CO)CC3)c(C)[nH]c12", "note": "[Example F63, 4-[2-Ethoxy-5-(trifluoromethyl)phenyl]-N-[1-(hydroxyacetyl)piperidin-4-yl]-6-methyl-5H-pyrrolo[3,2-d]pyrimidine-7-carboxamide]", "IC50": "< 1"}, {"smiles": "CCOc1ccc(C(F)(F)F)cc1-c1ncnc2c(C(=O)NC3CCN(C(=O)[C@H](C)O)CC3)c(C)[nH]c12", "note": "[Example F64, 4-[2-Ethoxy-5-(trifluoromethyl)phenyl]-N-{1-[(2S)-2-hydroxypropanoyl]piperidin-4-yl}-6-methyl-5H-pyrrolo[3,2-d]pyrimidine-7-carboxamide]", "IC50": "< 1"}, {"smiles": "COc1cc(-c2ncnc3c(C(=O)NC4CCN(C(=O)CO)CC4)c(C)[nH]c23)c(OCC2CC2)cc1F", "note": "[Example F65, 4-[2-(Cyclopropylmethoxy)-4-fluoro-5-methoxyphenyl]-N-(1-glycoloylpiperidin-4-yl)-6-methyl-5H-pyrrolo[3,2-d]pyrimidine-7-carboxamide]", "IC50": "< 1"}, {"smiles": "COc1cc(-c2ncnc3c(C(=O)NC4CCN(C(=O)[C@H](C)O)CC4)c(C)[nH]c23)c(OCC2CC2)cc1F", "note": "[Example F66, 4-[2-(Cyclopropylmethoxy)-4-fluoro-5-methoxyphenyl]-N-{1-[(2S)-2-hydroxypropanoyl]piperidin-4-yl}-6-methyl-5H-pyrrolo[3,2-d]pyrimidine-7-carboxamide]", "IC50": "< 1"}, {"smiles": "COc1cc(-c2ncnc3c(C(=O)N[C@H]4CC[C@H](NC(=O)CO)CC4)c(C)[nH]c23)c(OCC2CC2)cc1F", "note": "[Example F67, 4-[2-(Cyclopropylmethoxy)-4-fluoro-5-methoxyphenyl]-N-[trans-4-(glycoloylamino)cyclohexyl]-6-methyl-5H-pyrrolo[3,2-d]pyrimidine-7-carboxamide]", "IC50": "< 1"}, {"smiles": "COc1cc(-c2ncnc3c(C(=O)N[C@H]4CC[C@H](NC(=O)[C@H](C)O)CC4)c(C)[nH]c23)c(OCC2CC2)cc1F", "note": "[Example F68, 4-[2-(Cyclopropylmethoxy)-4-fluoro-5-methoxyphenyl]-N-(trans-4-{[(2S)-2-hydroxypropanoyl]amino}cyclohexyl)-6-methyl-5H-pyrrolo[3,2-d]pyrimidine-7-carboxamide]", "IC50": "< 1"}, {"smiles": "COc1cc(-c2ncnc3c(C(=O)N[C@H]4CC[C@@H](NC(=O)CO)CC4)c(C)[nH]c23)c(OCC2CC2)cc1F", "note": "[Example F69, 4-[2-(Cyclopropylmethoxy)-4-fluoro-5-methoxyphenyl]-N-[cis-4-(glycoloylamino)cyclohexyl]-6-methyl-5H-pyrrolo[3,2-d]pyrimidine-7-carboxamide]", "IC50": "< 1"}, {"smiles": "COc1cc(-c2ncnc3c(C(=O)N[C@H]4CC[C@@H](NC(=O)[C@H](C)O)CC4)c(C)[nH]c23)c(OCC2CC2)cc1F", "note": "[Example F70, 4-[2-(Cyclopropylmethoxy)-4-fluoro-5-methoxyphenyl]-N-(cis-4-{[(2S)-2-hydroxypropanoyl]amino}cyclohexyl)-6-methyl-5H-pyrrolo[3,2-d]pyrimidine-7-carboxamide]", "IC50": "< 1"}, {"smiles": "Cc1cc(-c2ncnc3c(C(=O)NC4CCN(C(=O)[C@H](C)O)CC4)c(C)[nH]c23)c(OCC2CC2)cc1F", "note": "[Example F76, 4-[2-(Cyclopropylmethoxy)-4-fluoro-5-methylphenyl]-N-{1-[(2S)-2-hydroxypropanoyl]piperidin-4-yl}-6-methyl-5H-pyrrolo[3,2-d]pyrimidine-7-carboxamide]", "IC50": "< 1"}, {"smiles": "Cc1cc(-c2ncnc3c(C(=O)N[C@H]4CC[C@H](NC(=O)CO)CC4)c(C)[nH]c23)c(OCC2CC2)cc1F", "note": "[Example F77, 4-[2-(Cyclopropylmethoxy)-4-fluoro-5-methylphenyl]-N-{trans-4-[(hydroxyacetyl)amino]cyclohexyl}-6-methyl-5H-pyrrolo[3,2-d]pyrimidine-7-carboxamide]", "IC50": "< 1"}, {"smiles": "Cc1cc(-c2ncnc3c(C(=O)N[C@H]4CC[C@H](NC(=O)[C@H](C)O)CC4)c(C)[nH]c23)c(OCC2CC2)cc1F", "note": "[Example F78, 4-[2-(Cyclopropylmethoxy)-4-fluoro-5-methylphenyl]-N-(trans-4-{[(2S)-2-hydroxypropanoyl]amino}cyclohexyl)-6-methyl-5H-pyrrolo[3,2-d]pyrimidine-7-carboxamide]", "IC50": "< 1"}, {"smiles": "Cc1cc(-c2ncnc3c(C(=O)N[C@H]4CC[C@@H](NC(=O)CO)CC4)c(C)[nH]c23)c(OCC2CC2)cc1F", "note": "[Example F79, 4-[2-(Cyclopropylmethoxy)-4-fluoro-5-methylphenyl]-N-{cis-4-[(hydroxyacetyl)amino]cyclohexyl}-6-methyl-5H-pyrrolo[3,2-d]pyrimidine-7-carboxamide]", "IC50": "< 1"}, {"smiles": "Cc1cc(-c2ncnc3c(C(=O)N[C@H]4CC[C@@H](NC(=O)[C@H](C)O)CC4)c(C)[nH]c23)c(OCC2CC2)cc1F", "note": "[Example F80, 4-[2-(Cyclopropylmethoxy)-4-fluoro-5-methylphenyl]-N-(cis-4-{[(2S)-2-hydroxypropanoyl]amino}cyclohexyl)-6-methyl-5H-pyrrolo[3,2-d]pyrimidine-7-carboxamide]", "IC50": "< 1"}, {"smiles": "COc1cc(OCC2CC2)c(-c2ncnc3c(C(=O)NC4CCN(C(=O)CO)CC4)c(C)[nH]c23)cc1F", "note": "[Example F83, 4-[2-(Cyclopropylmethoxy)-5-fluoro-4-methoxyphenyl]-N-(1-glycoloylpiperidin-4-yl)-6-methyl-5H-pyrrolo[3,2-d]pyrimidine-7-carboxamide]", "IC50": "< 1"}, {"smiles": "COc1cc(OCC2CC2)c(-c2ncnc3c(C(=O)NC4CCN(C(=O)[C@H](C)O)CC4)c(C)[nH]c23)cc1F", "note": "[Example F84, 4-[2-(Cyclopropylmethoxy)-5-fluoro-4-methoxyphenyl]-N-{1-[(2S)-2-hydroxypropanoyl]piperidin-4-yl}-6-methyl-5H-pyrrolo[3,2-d]pyrimidine-7-carboxamide]", "IC50": "< 1"}, {"smiles": "COc1cc(OCC2CC2)c(-c2ncnc3c(C(=O)N[C@H]4CC[C@H](NC(=O)CO)CC4)c(C)[nH]c23)cc1F", "note": "[Example F85, 4-[2-(Cyclopropylmethoxy)-5-fluoro-4-methoxyphenyl]-N-[trans-4-(glycoloylamino)cyclohexyl]-6-methyl-5H-pyrrolo[3,2-d]pyrimidine-7-carboxamide]", "IC50": "< 1"}, {"smiles": "COc1cc(OCC2CC2)c(-c2ncnc3c(C(=O)N[C@H]4CC[C@H](NC(=O)[C@H](C)O)CC4)c(C)[nH]c23)cc1F", "note": "[Example F86, 4-[2-(Cyclopropylmethoxy)-5-fluoro-4-methoxyphenyl]-N-(trans-4-{[(25)-2-hydroxypropanoyl]amino}cyclohexyl)-6-methyl-5H-pyrrolo[3,2-d]pyrimidine-7-carboxamide]", "IC50": "< 1"}, {"smiles": "COc1cc(OCC2CC2)c(-c2ncnc3c(C(=O)N[C@H]4CC[C@@H](NC(=O)CO)CC4)c(C)[nH]c23)cc1F", "note": "[Example F87, 4-[2-(Cyclopropylmethoxy)-5-fluoro-4-methoxyphenyl]-N-[cis-4-(glycoloylamino)cyclohexyl]-6-methyl-5H-pyrrolo[3,2-d]pyrimidine-7-carboxamide]", "IC50": "< 1"}, {"smiles": "COc1cc(OCC2CC2)c(-c2ncnc3c(C(=O)N[C@H]4CC[C@@H](NC(=O)[C@H](C)O)CC4)c(C)[nH]c23)cc1F", "note": "[Example F88, 4-[2-(Cyclopropylmethoxy)-5-fluoro-4-methoxyphenyl]-N-(cis-4-{[(2S)-2-hydroxypropanoyl]amino}cyclohexyl)-6-methyl-5H-pyrrolo[3,2-d]pyrimidine-7-carboxamide]", "IC50": "< 1"}, {"smiles": "CCc1ccc(OCC2CC2)c(-c2ncnc3c(C(=O)NC4CCN(C(=O)CO)CC4)c(C)[nH]c23)c1", "note": "[Example F91]", "IC50": "< 1"}, {"smiles": "CCc1ccc(OCC2CC2)c(-c2ncnc3c(C(=O)NC4CCN(C(=O)[C@H](C)O)CC4)c(C)[nH]c23)c1", "note": "[Example F92, 4-[2-(Cyclopropylmethoxy)-5-ethylphenyl]-N-{1-[(2S)-2-hydroxypropanoyl]piperidin-4-yl}-6-methyl-5H-pyrrolo[3,2-d]pyrimidine-7-carboxamide]", "IC50": "< 1"}, {"smiles": "CC(=O)c1ccc(OCC2CC2)c(-c2ncnc3c(C(=O)NC4CCN(C(=O)CO)CC4)c(C)[nH]c23)c1", "note": "[Example F102, 4-[5-Acetyl-2-(cyclopropylmethoxy)phenyl]-N-[1-(hydroxyacetyl)piperidin-4-yl]-6-methyl-5H-pyrrolo[3,2-d]pyrimidine-7-carboxamide]", "IC50": "< 1"}, {"smiles": "CC(=O)c1ccc(OCC2CC2)c(-c2ncnc3c(C(=O)NC4CCN(C(=O)[C@H](C)O)CC4)c(C)[nH]c23)c1", "note": "[Example F103, 4-[5-Acetyl-2-(cyclopropylmethoxy)phenyl]-N-{1-[(2S)-2-hydroxypropanoyl]piperidin-4-yl}-6-methyl-5H-pyrrolo[3,2-d]pyrimidine-7-carboxamide]", "IC50": "< 1"}, {"smiles": "CC(=O)c1ccc(OCC2CC2)c(-c2ncnc3c(C(=O)N[C@H]4CC[C@H](NC(=O)CO)CC4)c(C)[nH]c23)c1", "note": "[Example F104, 4-[5-Acetyl-2-(cyclopropylmethoxy)phenyl]-N-{trans-4-[(hydroxyacetyl)amino]cyclohexyl}-6-methyl-5H-pyrrolo[3,2-d]pyrimidine-7-carboxamide]", "IC50": "< 1"}, {"smiles": "CC(=O)c1ccc(OCC2CC2)c(-c2ncnc3c(C(=O)N[C@H]4CC[C@H](NC(=O)[C@H](C)O)CC4)c(C)[nH]c23)c1", "note": "[Example F105, 4-[5-Acetyl-2-(cyclopropylmethoxy)phenyl]-N-(trans-4-{[(2S)-2-hydroxypropanoyl]amino}cyclohexyl)-6-methyl-5H-pyrrolo[3,2-d]pyrimidine-7-carboxamide]", "IC50": "< 1"}]}]}
